Here are results for 10 molecules from patent US10987359B2, “Oxadiazepinone derivatives and methods of treating hepatitis B infections” (priority 2016, dated 2021).

Where two headings read alike, the source gives them in different places.

The subject of the test is HBV. The experiment in a line: HBV replication inhibition assay (BDNA assay) in HepG2.2.15 cells. The format is cell-based. The settings on record: HepG2.2.15 cells, read-out: DNA EC50. The protocol:
HBV replication inhibition by the disclosed compounds were determined in cells infected or transfected with HBV or cells with stably integrated HBV, such as HepG2.2.15 cells (Sells et al. 1987). In this example, HepG2.2.15 cells were maintained in cell culture medium containing 10% fetal bovine serum (FBS), Geneticin, L-glutamine, penicillin and streptomycin. HepG2.2.15 cells were seeded in 96-well plates at a density of 40,000 cells/well and were treated with serially diluted compounds at a final DMSO concentration of 0.5% either alone or in combination by adding drugs in a checker box format. Cells were incubated with compounds for three days, after which medium was removed and fresh medium containing compounds was added to cells and incubated for another three days. At day 6, supernatant was removed and treated with DNase at 37° C. for 60 minutes, followed by enzyme inactivation at 75° C. for 15 minutes. Encapsidated HBV DNA was released from the virions and covalently linked HBV polymerase by incubating in lysis buffer (Affymetrix QS0010) containing 2.5 μg proteinase K at 50° C. for 40 minutes. HBV DNA was denatured by addition of 0.2 M NaOH and detected using a branched DNA (BDNA) QuantiGene assay kit according to manufacturer recommendation (Affymetrix). HBV DNA levels were also quantified using qPCR, based on amplification of encapsidated HBV DNA extraction with QuickExtraction Solution (Epicentre Biotechnologies) and amplification of HBV DNA using HBV specific PCR probes that can hybridize to HBV DNA and a fluorescently labeled probe for quantitation. In addition, cell viability of HepG2.2.15 cells incubated with test compounds alone or in combination was determined by using CellTitre-Glo reagent according to the manufacturer protocol (Promega). The mean background signal from wells containing only culture medium was subtracted from all other samples, and percent inhibition at each compound concentration was calculated by normalizing to signals from HepG2.2.15 cells treated with 0.5% DMSO using equation E1. % inhibition=(DMSOave−Xi)/DMSOave×100% E1: […]
where DMSOave is the mean signal calculated from the wells that were treated with DMSO control (0% inhibition control) and Xi is the signal measured from the individual wells. EC50 values, effective concentrations that achieved 50% inhibitory effect, were determined by non-linear fitting using Graphpad Prism software (San Diego, Calif.) and equation E2: Y=Y min+(Y max−Y min)/(1+10(Log EC50−X)×HillSlope) E2: […]
where Y represents percent inhibition values and X represents the logarithm of compound concentrations.
Selected disclosed compounds were assayed in the HBV replication assay (BDNA assay), as described above, and a representative group of these active compounds is shown in Table 7. […] In Table 7, “A” represents 1<EC50≤100; “B” represents 100<EC50≤500; “C” represents 500<EC50≤1000; and “D” represents EC50>1000.

Where [1] appears, read: Hepatitis B virus, HepG2.2.15, HBV replication assay (BDNA assay).
[2] abbreviates: HBV replication assay (BDNA assay).

For orientation: EC50 means the concentration that produces a half-maximal response. On to `CN1OC(CO)Cn2nc3c(c2C1=O)CN(C(=O)N(C)c1ccc(F)c(Cl)c1)CC3` (stereo not shown) [Compound 045, N-(3-chloro-4-fluorophenyl)-4-(hydroxymethyl)-N,2-dimethyl-1-oxo-1,4,5,8,9,11-hexahydropyrido[4′,3′:3,4]pyrazolo[5,1-d][1,2,5]oxadiazepine-10(2H)-carboxamide], for which, under setting [1], the concentration for a half-maximal effect (EC50) lay in the range of 100 to 500 nM.

As for `CN1OC(CNC(=O)CC#N)Cn2nc3c(c2C1=O)CN(C(=O)Nc1ccc(F)c(Cl)c1)CC3` (stereo not shown) [Compound 205, N-(3-chloro-4-fluorophenyl)-4-((2-cyanoacetamido)methyl)-2-methyl-1-oxo-1,4,5,8,9,11-hexahydropyrido[4′,3′:3,4]pyrazolo[5,1-d][1,2,5]oxadiazepine-10(2H)-carboxamide], the EC50 under setting [1] fell in the range of 1 to 100 nM.

With `Cc1cc(NC(=O)N2CCc3nn4c(c3C2)C(=O)N(C)OC(CO)C4)ccc1F` (single isomer, unassigned) [Compound 035_E1, (S*)—N-(4-fluoro-3-methylphenyl)-4-(hydroxymethyl)-2-methyl-1-oxo-1,4,5,8,9,11-hexahydropyrido[4′,3′:3,4]pyrazolo[5,1-d][1,2,5]oxadiazepine-10(2H)-carboxamide], under setting [1], the EC50 was in the range of 1 to 100 nM.

As for `CN(CC(F)F)C(=O)C1Cn2nc3c(c2C(=O)N(C)O1)CN(C(=O)Nc1ccc(F)c(Cl)c1F)CC3` (stereo not shown) [Compound 158, N10-(3-chloro-2,4-difluorophenyl)-N4-(2,2-difluoroethyl)-N4,2-dimethyl-1-oxo-1,4,5,8,9,11-hexahydropyrido[4′,3′:3,4]pyrazolo[5,1-d][1,2,5]oxadiazepine-4,10(2H)-dicarboxamide], under setting [1], the EC50 fell in the range of 1 to 100 nM. On the same count and under the same terms, the same measure for `CNC(=O)C1Cn2nc3c(c2C(=O)N(C)O1)CN(C(=O)Nc1ccc(F)c(Cl)c1)CC3` (stereo not shown) [Compound 073, N10-(3-chloro-4-fluoro-phenyl)-N4,2-dimethyl-1-oxo-5,8,9,11-tetrahydro-4H-pyrido[2,3]pyrazolo[2,4-d][1,2,5]oxadiazepine-4,10-dicarboxamide]: 1 to 100 nM; for `C[C@@H]1Cc2nn3c(c2CN1C(=O)Nc1ccc(F)c(C#N)c1)C(=O)N(C)N=C(COCC(F)F)C3` [Compound 237, (R)-N-(3-cyano-4-fluorophenyl)-4-((2,2-difluoroethoxy)methyl)-2,9-dimethyl-1-oxo-1,2,5,8,9,11-hexahydro-10H-pyrido[4′,3′:3,4]pyrazolo[5,1-d][1,2,5]triazepine-10-carboxamide]: 1 to 100 nM; for `CSCC1Cn2nc3c(c2C(=O)N(C)O1)CN(C(=O)Nc1ccc(F)c(Cl)c1)CC3` (stereo not shown) [Compound 048, N-(3-chloro-4-fluoro-phenyl)-2-methyl-4-(methylsulfanylmethyl)-1-oxo-5,8,9,11-tetrahydro-4H-pyrido[2,3]pyrazolo[2,4-d][1,2,5]oxadiazepine-10-carboxamide]: 1 to 100 nM. Regarding `CN1OC(CF)Cn2nc3c(c2C1=O)CN(C(=O)Nc1cccc(C(F)(F)F)c1)CC3` (stereo not shown) [Compound 036, 4-(fluoromethyl)-2-methyl-1-oxo-N-(3-(trifluoromethyl)phenyl)-1,4,5,8,9,11-hexahydropyrido[4′,3′:3,4]pyrazolo[5,1-d][1,2,5]oxadiazepine-10(2H)-carboxamide], under setting [1], the EC50 was in the range of 1 to 100 nM.

`C[C@@H]1Cc2nn3c(c2CN1C(=O)Nc1ccc(F)c(C#N)c1)C(=O)N(C)OC(CNCC(F)F)C3` (stereo in doubt) [Compound 183_D2, (4R*,9R)—N-(3-cyano-4-fluorophenyl)-4-(((2,2-difluoroethyl)amino)methyl)-2,9-dimethyl-1-oxo-1,4,5,8,9,11-hexahydropyrido[4′,3′:3,4]pyrazolo[5,1-d][1,2,5]oxadiazepine-10(2H)-carboxamide]: under setting [2], the EC50 fell in the range of 1 to 100 nM. Still for that read-out and setting: the same measure for `C[C@@H]1Cc2nn3c(c2CN1C(=O)Nc1cc(Br)c(F)cc1F)C(=O)N(C)OC(CO)C3` (stereo in doubt) [Compound 089_E2, (4R*,9R)—N-(5-bromo-2,4-difluorophenyl)-4-(hydroxymethyl)-2,9-dimethyl-1-oxo-1,4,5,8,9,11-hexahydropyrido[4′,3′:3,4]pyrazolo[5,1-d][1,2,5]oxadiazepine-10(2H)-carboxamide]: 1 to 100 nM.
